Experimental data reported in patent US8268369B2, “Compositions and methods for treating hypercholesterolemia using Ortanique peel extract” (The University of the West Indies, priority 2008, dated 2012).
Marks after values point to notes of the source that are not given here.

Key:
glutathione reductase = assay: Glutathione reductase activity in organs of rats; assay type: in vivo; details: hypercholesterolemic rats
glutathione peroxidase = assay: Glutathione peroxidase activity in organs of rats; assay type: in vivo; details: hypercholesterolemic rats
glutathione transferase = assay: Glutathione transferase activity in organs of rats; assay type: in vivo; details: hypercholesterolemic rats
[1] = tested on: diet-induced hypercholesterolemic rats; assay: Kidney function: serum creatinine and urea; details: comparison among the groups

`O=C(O)c1cccnc1` [niacin] was tested, and the “Glutathione Reductase Activity, Brain” value (glutathione reductase; brain) was 14.95 ± 1.67^a nmol/min/mg protein, the “Glutathione Reductase Activity, Heart” value (glutathione reductase; heart) was 12.53 ± 0.85^a nmol/min/mg protein and the “Glutathione Reductase Activity, Kidney” value (glutathione reductase; kidney) was 12.36 ± 0.10^a nmol/min/mg protein. The “Glutathione Reductase Activity, Spleen” value (glutathione reductase; spleen) was 49.48 ± 3.32^a nmol/min/mg protein, the “Glutathione Peroxidase Activity, Brain” value (glutathione peroxidase; brain) was 0.59 ± 0.18^a nmol/min/mg protein and the “Glutathione Peroxidase Activity, Heart” value (glutathione peroxidase; heart) was 5.14 ± 0.63^a nmol/min/mg protein. For the same molecule, the “Glutathione Peroxidase Activity, Kidney” value (glutathione peroxidase; kidney) was 3.35 ± 1.30^a nmol/min/mg protein, the “Glutathione Peroxidase Activity, Spleen” value (glutathione peroxidase; spleen) was 0.21 ± 0.034^a nmol/min/mg protein and the “Glutathione Transferase Activity, Brain” value (glutathione transferase; brain) was 0.28 ± 0.04^a nmol/min/mg protein. For the same molecule, the “Glutathione Transferase Activity, Heart” value (glutathione transferase; heart) was 0.21 ± 0.011^a nmol/min/mg protein, the “Glutathione Transferase Activity, Kidney” value (glutathione transferase; kidney) was 0.20 ± 0.05^b nmol/min/mg protein and the “Glutathione Transferase Activity, Spleen” value (glutathione transferase; spleen) was 0.16 ± 0.07^b nmol/min/mg protein. The “level of serum creatinine” value [1] was “no significant differences” and the “level of serum urea” value [1] was “no significant differences”.
